Data from patent US5824771A, “Cyclic CRF agonists” (The Salk Institute for Biological Studies, priority 1997, dated 1998).
Read-outs that look alike come from different tables or passages of the source. Bridge positions count the residues as written; N and C are the ends. Square brackets hold non-standard residues; d marks the D form. Peptide text beside a SMILES is read from it. Nle = CCCC[C@H](N)C(=O)O

System: rat anterior pituitary cells
Assay: In vitro stimulation of ACTH and β-endorphin secretion by cultured rat pituitary cells, potency compared with oCRF (Standard) or r/hCRF
Format: cell-based
Conditions: for in vitro biopotency, comparison in words: compared with the Standard or with a named analog
Procedure: The cyclic CRF agonists are examined for their effects on the secretion of ACTH and β-endorphin in vitro and also in vivo. […] In vivo testing is carried out using the general procedure set forth in C. Rivier et al., Science, 218, 377 (1982).

[1] = relative to the laboratory Standard (synthetic oCRF), cultured rat pituitary cells, limits in parentheses

CC[C@H](C)[C@H](NC(=O)[C@@H]1CCCN1C(=O)[C@@H]1CCCN1C(C)=O)C(=O)N[C@@H](CO)C(=O)N[C@@H](CC(C)C)C(=O)N[C@@H](CC(=O)O)C(=O)N[C@@H](CC(C)C)C(=O)N[C@H](C(=O)N[C@H](Cc1ccccc1)C(=O)N[C@@H](Cc1c[nH]cn1)C(=O)N[C@@H](CC(C)C)C(=O)N[C@@H](CC(C)C)C(=O)N[C@@H](CCCNC(=N)N)C(=O)N[C@@H](CCC(=O)O)C(=O)N[C@@H](CCSC)C(=O)N[C@@H](CC(C)C)C(=O)N[C@@H](CCC(=O)O)C(=O)N[C@@H](CCSC)C(=O)N[C@@H](C)C(=O)N[C@@H](CCCCN)C(=O)N[C@@H](C)C(=O)N[C@@H](CCC(=O)O)C(=O)N[C@@H](CCC(N)=O)C(=O)N[C@@H](CCC(=O)O)C(=O)N[C@@H](C)C(=O)N[C@@H](CCC(=O)O)C(=O)N[C@H]1CCC(=O)NCCCC[C@@H](C(=O)N[C@@H](CC(N)=O)C(=O)N[C@@H](CCCNC(=N)N)C(=O)N[C@@H](CC(C)C)C(=O)N[C@@H](CC(C)C)C(=O)N[C@@H](CC(C)C)C(=O)N[C@@H](CCC(=O)O)C(=O)N[C@@H](CCC(=O)O)C(=O)N[C@@H](C)C(N)=O)NC(=O)[C@H](C)NC(=O)[C@H](C)NC1=O)[C@@H](C)O [(cyclo 30-33)[Ac-Pro^4, D-Phe^12, Glu^30, Lys^33]-AHC(4-41)] (Ac-PPISLDLT[dF]HLLREMLEMAKAEQEAEEAAKNRLLLEEA-NH2; lactam 27-30)
in vitro potency to stimulate secretion of ACTH relative to the Standard [1]: about 7.5 times

CCCC[C@H](NC(=O)[C@H](CCC(=O)O)NC(=O)[C@@H](NC(=O)[C@H](CCCC)NC(=O)[C@H](CC(N)=O)NC(=O)[C@H](CCCNC(=N)N)NC(=O)[C@H](CC(C)C)NC(=O)[C@H](CC(C)C)NC(=O)[C@H](Cc1c[nH]cn1)NC(=O)[C@@H](Cc1ccccc1)NC(=O)[C@@H](NC(=O)[C@H](CC(C)C)NC(=O)[C@H](CC(=O)O)NC(=O)[C@@H](NC(=O)[C@H](CO)NC(=O)[C@@H](NC(=O)[C@H]1CCCN1C(=O)[C@@H]1CCCN1C(C)=O)[C@@H](C)CC)[C@@H](C)CC)[C@@H](C)O)[C@@H](C)CC)C(=O)N[C@@H](C)C(=O)N[C@@H](CCCNC(=N)N)C(=O)N[C@@H](CC(N)=O)C(=O)N[C@@H](CCC(=O)O)C(=O)N[C@@H](CC(N)=O)C(=O)N[C@@H](CCC(N)=O)C(=O)N[C@@H](CCCNC(=N)N)C(=O)N[C@@H](CCC(=O)O)C(=O)N[C@H]1CCC(=O)NCCCC[C@@H](C(=O)N[C@@H](CC(N)=O)C(=O)N[C@@H](CCCNC(=N)N)C(=O)N[C@@H](CCCCN)C(=O)N[C@@H](Cc2ccc(O)cc2)C(=O)N[C@@H](CC(C)C)C(=O)N[C@@H](CC(=O)O)C(=O)N[C@@H](CCC(=O)O)C(=O)N[C@H](C(N)=O)C(C)C)NC(=O)[C@@H](C)NC(=O)[C@H](C)NC1=O [Example 8 A D-Ala^32 analog] (Ac-P[dP]ISIDLT[dF]HLLRN[Nle]IE[Nle]ARNENQREEA[dA]KNRKYLDEV-NH2; lactam 27-30)
in vitro potency to stimulate secretion of ACTH relative to the Standard: about 4.9 times

CCCC[C@H](NC(=O)[C@H](CCCCN)NC(=O)[C@H](CCCNC(=N)N)NC(=O)[C@H](CC(C)C)NC(=O)[C@H](CC(C)C)NC(=O)[C@H](CCC(=O)O)NC(=O)[C@@H](CC(C)C)NC(=O)[C@H](CO)NC(=O)[C@H](CC(C)C)NC(=O)[C@H](CC(=O)O)NC(=O)[C@@H](NC(=O)[C@H](CO)NC(=O)[C@@H](NC(=O)[C@H]1CCCN1C(=O)[C@@H]1CCCN1C(C)=O)[C@@H](C)CC)[C@@H](C)CC)C(=O)N[C@H](C(=O)N[C@@H](CCC(=O)O)C(=O)N[C@H](C(=O)N[C@@H](CCC(=O)O)C(=O)N[C@@H](CCCCN)C(=O)N[C@@H](CCC(N)=O)C(=O)N[C@@H](CCC(=O)O)C(=O)N[C@@H](CCCCN)C(=O)N[C@@H](CCC(=O)O)C(=O)N[C@@H](CCCCN)C(=O)N[C@@H](CCC(N)=O)C(=O)N[C@H]1CCC(=O)NCCCC[C@@H](C(=O)N[C@@H](CC(N)=O)C(=O)N[C@@H](CCCNC(=N)N)C(=O)N[C@@H](CC(C)C)C(=O)N[C@@H](CC(C)C)C(=O)N[C@@H](CC(C)C)C(=O)N[C@@H](CC(=O)O)C(=O)N[C@H](C(=O)N[C@H](C(N)=O)[C@@H](C)CC)[C@@H](C)O)NC(=O)[C@@H](C)NC(=O)[C@H](C)NC1=O)[C@@H](C)CC)[C@@H](C)CC [Example 8 B D-Ala^31 analog] (Ac-P[dP]ISIDLS[dL]ELLRK[Nle]IEIEKQEKEKQEA[dA]KNRLLLDTI-NH2; lactam 27-30)
in vitro potency to stimulate secretion of ACTH relative to the Standard [1]: about 2 times

CCCC[C@H](NC(=O)[C@H](CCC(=O)O)NC(=O)[C@H](CC(C)C)NC(=O)[C@H](CCCC)NC(=O)[C@H](CCC(=O)O)NC(=O)[C@H](CCCNC(=N)N)NC(=O)[C@H](CC(C)C)NC(=O)[C@H](CC(C)C)NC(=O)[C@H](Cc1c[nH]cn1)NC(=O)[C@@H](Cc1ccccc1)NC(=O)[C@@H](NC(=O)[C@H](CC(C)C)NC(=O)[C@H](CC(=O)O)NC(=O)[C@H](CC(C)C)NC(=O)[C@H](CO)NC(=O)[C@@H](NC(=O)[C@H]1CCCN1C(=O)[C@@H]1CCCN1C(C)=O)[C@@H](C)CC)[C@@H](C)O)C(=O)N[C@@H](C)C(=O)N[C@@H](CCCCN)C(=O)N[C@@H](C)C(=O)N[C@@H](CCC(=O)O)C(=O)N[C@@H](CCC(N)=O)C(=O)N[C@@H](CCC(=O)O)C(=O)N[C@@H](C)C(=O)N[C@@H](CCC(=O)O)C(=O)N[C@H]1CCC(=O)NCCCC[C@@H](C(=O)N[C@@H](CC(N)=O)C(=O)N[C@@H](CCCNC(=N)N)C(=O)N[C@@H](CC(C)C)C(=O)N[C@@H](CC(C)C)C(=O)N[C@@H](CC(C)C)C(=O)N[C@@H](CCC(=O)O)C(=O)N[C@@H](CCC(=O)O)C(=O)N[C@@H](C)C(N)=O)NC(=O)[C@@H](C)NC(=O)[C@H](C)NC1=O [Example 8 C D-Ala^32 analog] (Ac-P[dP]ISLDLT[dF]HLLRE[Nle]LE[Nle]AKAEQEAEEA[dA]KNRLLLEEA-NH2; lactam 27-30)
in vitro potency to stimulate secretion of ACTH relative to the Standard: about 6.35 times

CCCC[C@H](NC(=O)[C@H](CCC(=O)O)NC(=O)[C@H](CC(C)C)NC(=O)[C@H](CCCC)NC(=O)[C@H](CCC(=O)O)NC(=O)[C@H](CCCNC(=N)N)NC(=O)[C@H](CC(C)C)NC(=O)[C@H](CC(C)C)NC(=O)[C@H](Cc1c[nH]cn1)NC(=O)[C@@H](Cc1ccccc1)NC(=O)[C@@H](NC(=O)[C@H](CC(C)C)NC(=O)[C@H](CC(=O)O)NC(=O)[C@H](CC(C)C)NC(=O)[C@H](CO)NC(C)=O)[C@@H](C)O)C(=O)N[C@@H](C)C(=O)N[C@@H](CCCCN)C(=O)N[C@@H](C)C(=O)N[C@@H](CCC(=O)O)C(=O)N[C@@H](CCC(N)=O)C(=O)N[C@@H](CCC(=O)O)C(=O)N[C@@H](C)C(=O)N[C@@H](CCC(=O)O)C(=O)N[C@H]1CCC(=O)NCCCC[C@@H](C(=O)N[C@@H](CC(N)=O)C(=O)N[C@@H](CCCNC(=N)N)C(=O)N[C@@H](CC(C)C)C(=O)N[C@@H](CC(C)C)C(=O)N[C@@H](CC(C)C)C(=O)N[C@@H](CCC(=O)O)C(=O)N[C@@H](CCC(=O)O)C(=O)N[C@@H](C)C(N)=O)NC(=O)[C@H](C)NC(=O)[C@H](C)NC1=O [Example 16 A Ala^32 cyclic analog] (Ac-SLDLT[dF]HLLRE[Nle]LE[Nle]AKAEQEAEEAAKNRLLLEEA-NH2; lactam 24-27)
in vitro biopotency, comparison in words: biopotency greater than the Standard peptide

CCCC[C@H](NC(=O)[C@H](CCC(=O)O)NC(=O)[C@H](CC(C)C)NC(=O)[C@H](CCCC)NC(=O)[C@H](CCC(=O)O)NC(=O)[C@H](CCCNC(=N)N)NC(=O)[C@H](CC(C)C)NC(=O)[C@H](CC(C)C)NC(=O)[C@H](Cc1c[nH]cn1)NC(=O)[C@@H](Cc1ccccc1)NC(=O)[C@@H](NC(=O)[C@H](CC(C)C)NC(=O)[C@H](CC(=O)O)NC(=O)[C@H](CC(C)C)NC(=O)[C@H](CO)NC(C)=O)[C@@H](C)O)C(=O)N[C@@H](C)C(=O)N[C@@H](CCCCN)C(=O)N[C@@H](C)C(=O)N[C@@H](CCC(=O)O)C(=O)N[C@@H](CCC(N)=O)C(=O)N[C@@H](CCC(=O)O)C(=O)N[C@@H](C)C(=O)N[C@@H](CCC(=O)O)C(=O)N[C@H]1CCC(=O)NCCCC[C@@H](C(=O)N[C@@H](CC(N)=O)C(=O)N[C@@H](CCCNC(=N)N)C(=O)N[C@@H](CC(C)C)C(=O)N[C@@H](CC(C)C)C(=O)N[C@@H](CC(C)C)C(=O)N[C@@H](CCC(=O)O)C(=O)N[C@@H](CCC(=O)O)C(=O)N[C@@H](C)C(N)=O)NC(=O)[C@@H](Cc2c[nH]cn2)NC(=O)[C@H](C)NC1=O [Example 16 A D-His^32 cyclic analog] (Ac-SLDLT[dF]HLLRE[Nle]LE[Nle]AKAEQEAEEA[dH]KNRLLLEEA-NH2; lactam 24-27)
in vitro biopotency, comparison in words: biopotency greater than the Standard peptide

CCCC[C@H](NC(=O)[C@H](CCCCN)NC(=O)[C@H](CCCNC(=N)N)NC(=O)[C@H](CC(C)C)NC(=O)[C@H](CC(C)C)NC(=O)[C@H](CCC(=O)O)NC(=O)[C@@H](CC(C)C)NC(=O)[C@H](CO)NC(=O)[C@H](CC(C)C)NC(=O)[C@H](CC(=O)O)NC(=O)[C@@H](NC(=O)[C@H](CO)NC(C)=O)[C@@H](C)CC)C(=O)N[C@H](C(=O)N[C@@H](CCC(=O)O)C(=O)N[C@H](C(=O)N[C@@H](CCC(=O)O)C(=O)N[C@@H](CCCCN)C(=O)N[C@@H](CCC(N)=O)C(=O)N[C@@H](CCC(=O)O)C(=O)N[C@@H](CCCCN)C(=O)N[C@@H](CCC(=O)O)C(=O)N[C@@H](CCCCN)C(=O)N[C@@H](CCC(N)=O)C(=O)N[C@H]1CCC(=O)NCCCC[C@@H](C(=O)N[C@@H](CC(N)=O)C(=O)N[C@@H](CCCNC(=N)N)C(=O)N[C@@H](CC(C)C)C(=O)N[C@@H](CC(C)C)C(=O)N[C@@H](CC(C)C)C(=O)N[C@@H](CC(=O)O)C(=O)N[C@H](C(=O)N[C@H](C(N)=O)[C@@H](C)CC)[C@@H](C)O)NC(=O)[C@@H](C)NC(=O)[C@H](C)NC1=O)[C@@H](C)CC)[C@@H](C)CC [Example 16 C D-Ala^31 analog] (Ac-SIDLS[dL]ELLRK[Nle]IEIEKQEKEKQEA[dA]KNRLLLDTI-NH2; lactam 24-27)
in vitro biopotency, comparison in words: shows increased biopotency
